For this assay, the system named is EE2-227 antibody. Kind of assay: Cross-reactivity test with the EE2-ELISA kit. It is filed as binding, mouse. The note with it: from IC50 (50% degree of inhibition) of each estrogen's standard curve relative to EE2. How it is done: 100 μL/well of a quantification sample or the “EE2 standard solution” (both are 10% methanol solutions) and 100 μL/well of the “antigen-enzyme conjugate solution” were mixed on a “mixing microplate”.
The “mixed solution” prepared in (3) was pipetted into the “anti-EE2 monoclonal antibody-immobilized plate” in a volume of 100 μl/well and reacted at room temperature for 60 minutes.
The “coloration reagent” prepared in (7) was added in the volume of 100 μL/well, the mixture was reacted at room temperature for 30 minutes, and the “coloration-stop solution” was added in a volume of 100 μL/well to stop the reaction.
The absorbance was measured at a wavelength of 450 nm with a plate reader, and the concentration of EE2 in the sample was determined from a standard curve.
The EE2 concentration was plotted on the ordinate [sic], and the ratio of the absorbance at each EE2 concentration to the absorbance at the concentration of 0 μg/L EE2 (degree of inhibition, B/BO %) was plotted on the abscissa [sic].
For the estrogens shown in [Table 2], the respective standard curves were prepared in the same manner as in Example 4, and the EE2 concentration (IC50) at which the degree of inhibition was 50% was determined and the cross-reactivity was determined from the following equation, and the results are shown in [Table 2]. Cross-reactivity (%)=[…]

On to `C[C@]12CC[C@@H]3c4ccc(O)cc4CC[C@H]3[C@@H]1C[C@@H](O)[C@@H]2O` [Estriol (E3), Estriol], for which the “Cross-reactivity (%) of EE2-227 antibody” value is on record as less than 0.2%.

For the molecule `C[C@]12CC[C@@H]3c4ccc(O)cc4CC[C@H]3[C@@H]1C[C@@H](O[C@@H]1O[C@H](C(=O)O)[C@@H](O)[C@H](O)[C@H]1O)[C@@H]2O` [E3-16-glucuronide], the “Cross-reactivity (%) of EE2-227 antibody” value is less than 0.2%.

Turning to `C[C@]12CC[C@@H]3c4ccc(O)cc4CC[C@H]3[C@@H]1C[C@H](O)[C@@H]2O` [16-Epi-E3], the “Cross-reactivity (%) of EE2-227 antibody” value was less than 0.2%.

With `C[C@]12CC[C@@H]3c4ccc(O)cc4CC[C@H]3[C@@H]1CC[C@@H]2O[C@@H]1O[C@H](C(=O)O)[C@@H](O)[C@H](O)[C@H]1O` [E2-17-glucuronide], the “Cross-reactivity (%) of EE2-227 antibody” value was less than 0.2%.

In the case of `COc1cc2c(cc1O)CC[C@@H]1[C@@H]2CC[C@]2(C)C(=O)CC[C@@H]12` [2-Methoxy E1], the “Cross-reactivity (%) of EE2-227 antibody” value is recorded as less than 0.2%.

With `C[C@]12CC[C@@H]3c4ccc(O[C@@H]5O[C@H](C(=O)O)[C@@H](O)[C@H](O)[C@H]5O)cc4CC[C@H]3[C@@H]1CC[C@@H]2O` [E2-3-glucuronide], the “Cross-reactivity (%) of EE2-227 antibody” value is on record as less than 0.2%.

On to `C[C@]12CC[C@@H]3c4ccc(O)cc4CC[C@H]3[C@@H]1CC[C@@H]2O` [17β-Estradiol (E2), 17β-Estradiol], for which the “Cross-reactivity (%) of EE2-227 antibody” value is listed as less than 0.2%.

As for `C[C@]12CC[C@@H]3c4ccc(OS(=O)(=O)O)cc4CC[C@H]3[C@@H]1CC[C@@H]2O[C@@H]1O[C@H](C(=O)O)[C@@H](O)[C@H](O)[C@H]1O` [E2-3-sulfate-17-glucuronide], the “Cross-reactivity (%) of EE2-227 antibody” value was less than 0.2%.

Regarding `C#C[C@]1(O)CC[C@H]2[C@@H]3CCc4cc(O)ccc4[C@H]3CC[C@@]21C` [Ethynylestradiol (EE2), Ethynylestradiol], the “Cross-reactivity (%) of EE2-227 antibody” value amounted to 100.0%.
